Data on three compounds can be found in US20230173018A1, “CASPOFUNGIN DERIVATIVES AND ASSAYS FOR EVALUATING ANTIFUNGAL TREATMENT EFFICACY” (priority 2020, published 2023).

Format in all cases: cell-based
The subject of assay [1] is C. albicans SC5314 and SN152 cells. Briefly: Effect of endocytosis inhibitors on probe 1 uptake, flow cytometry. The note with it: 8 μg/mL inhibitor, 1 μM probe 1, after 30 min, both SC5314 and SN152. Here is the method:
Assuming that echinocandin probe uptake occurs via endocytosis, then inhibitors of endocytosis should inhibit probe uptake as well. The accumulation of probe 1 in C. albicans SC5314 and SN152 cells was measured by flow cytometry in the absence and presence of endocytosis inhibitors trifluoperazine (TFP) or pyrroloquinoxaline derivative CGS 12066B (FIG. 6A).
For example, after 30 min, TFP inhibited the uptake of probe 1 by approximately 30% and CGS 12066B inhibited its uptake by approximately 60% in both C. albicans SC5314 and SN152.

The test system of assay [2] is C. albicans SC5314 and C. albicans SN152. Briefly: Effect of endocytosis inhibitors on growth of Candida cells. The note with it: 8 μg/mL, FIGS. 6C-6F.
Assay [3] concerns C. albicans SC5314 and SN152. The assay can be described thus: Competition for cellular uptake with probe 1, flow cytometry. The note with it: added simultaneously with probe 1; caspofungin 1 μM, 10 μM; fluconazole 10 μM. The method, then: To determine if caspofungin competes for cellular uptake with fluorescent probe 1, both the drug and the probe were added simultaneously to cultures of strains SC5314 and SN152. The uptake of probe 1 was measured by flow cytometry every 15 minutes for 1 hour (FIG. 6B). […] No effect on the uptake of probe 1 was detected in cells co-treated with the antifungal azole drug fluconazole, which inhibits the biosynthesis of fungal membrane sterol, ergosterol.

Consider `CN1CCN(c2nc3cc(C(F)(F)F)ccc3n3cccc23)CC1.O=C(O)/C=C\C(=O)O.O=C(O)/C=C\C(=O)O` [CGS 12066B], for which the “inhibition of the uptake of probe 1” value in assay [1] is given as “approximately 60%”. Also, in assay [2], the effect on growth entry is reported as “modestly reduce growth”. In assay [1] (Candida albicans, 0.5 h), `CN1CCN(CCCN2c3ccccc3Sc3ccc(C(F)(F)F)cc32)CC1` [TFP, trifluoperazine] came in with an inhibition at 8 µg/mL of about 30%. For the same compound, the effect on growth result in assay [2] is on record as “modestly reduce growth”. For `OC(Cn1cncn1)(Cn1cncn1)c1ccc(F)cc1F` [fluconazole], the “effect on the uptake of probe 1” value in assay [3] is given as “No effect”.
